Assay results taken from US20210198204A1, “PRODRUGS OF KALLIKREIN INHIBITORS” (BioCryst Pharmaceuticals, Inc., priority 2016, published 2021).

Experiment: Plasma pharmacokinetics of the parent compound after a single oral dose of prodrug
Format: in vivo
Details: single oral dose 10 mg/kg, fasted male Sprague Dawley rats; plasma analyzed for the parent compound; study duration 8 h
In short: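 Three male Sprague Dawley rats, housed in metabolic cages and fasted about 15 hours, were weighed and received one oral gavage dose of 10 mg/kg as a solution in water or water/propylene glycol. Blood (approximately 500 μL) went into heparin tubes at set timepoints up to the study duration. Plasma was separated by centrifugation at 14,000 rpm for 3 min at 4° C, stored below −70° C, and assayed for the parent compound.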

C=Cc1cc(C(=O)Nc2ccc(C(=N)NC(=O)OC(C)CO)cc2)c(-c2ccc(C(=O)NCC3CC3)nc2C(=O)OC(C)OC(=O)OC(C)C)cc1OC (centres unmarked) [Compound 95e, 1-((isopropoxycarbonyl)oxy)ethyl 6-((cyclopropylmethyl)carbamoyl)-3-(2-((4-(N-(((1-hydroxypropan-2-yl)oxy)carbonyl)carbamimidoyl)phenyl)carbamoyl)-5-methoxy-4-vinylphenyl)picolinate]
AUC0-last hour (area under the curve): B (B = 1,001-10,000 ng/mL)

C=Cc1cc(C(=O)Nc2ccc(C(=N)N)cc2)c(-c2ccc(C(=O)NCC3CC3)nc2C(=O)OC(C)OC(=O)C(C)(C)C)cc1OC (centres unmarked) [Compound 22d, 1-(pivaloyloxy)ethyl 3-(2-((4-carbamimidoylphenyl)carbamoyl)-5-methoxy-4-vinylphenyl)-6-((cyclopropylmethyl)carbamoyl)picolinate]
AUC0-last hour (area under the curve): A (A = 0-1,000 ng/mL)
